± gives the standard deviation of the averaged measurements.
How the values were obtained:
Test in all cases: normalised growth rate inhibition (GR value) relative to DMSO control (GR (1 = untreated growth, 0 = cytostasis, <0 = cytotoxic)); higher = less growth inhibition
Conditions in all cases: 72 h
SKBR3 = test system: SKBR3
Description: (§1)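 Breast cancer cell lines (BT-20, Hs 578T, MCF 10A, MCF7, MDA-MB-231, SK-BR-3) were plated in 384-well plates and treated 24 h later with drugs at six concentrations (0.04-10 µM). Viable cells were counted by Hoechst/dead-cell-stain imaging at 0 and 72 h. Counts were normalised to DMSO controls on the same plate to give the relative cell count and the growth-rate inhibition (GR) value; technical plate triplicates were averaged for each biological replicate.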

MDAMB231 = test system: MDAMB231
Description: as §1

MCF7 = test system: MCF7
Description: as §1

MCF10A = test system: MCF10A
Description: as §1

HS578T = test system: HS578T
Description: as §1

BT20 = test system: BT20
Description: as §1

Structure (SMILES)	normalised growth rate inhibition (SKBR3; 0.04 µM)	normalised growth rate inhibition (SKBR3; 0.12 µM)	normalised growth rate inhibition (SKBR3; 0.37 µM)	normalised growth rate inhibition (SKBR3; 1.11 µM)	normalised growth rate inhibition (SKBR3; 3.33 µM)	normalised growth rate inhibition (SKBR3; 10 µM)	normalised growth rate inhibition (MDAMB231; 0.04 µM)	normalised growth rate inhibition (MDAMB231; 0.12 µM)	normalised growth rate inhibition (MDAMB231; 0.37 µM)	normalised growth rate inhibition (MDAMB231; 1.11 µM)	normalised growth rate inhibition (MDAMB231; 3.33 µM)	normalised growth rate inhibition (MDAMB231; 10 µM)	normalised growth rate inhibition (MCF7; 0.04 µM)	normalised growth rate inhibition (MCF7; 0.12 µM)	normalised growth rate inhibition (MCF7; 0.37 µM)	normalised growth rate inhibition (MCF7; 1.11 µM)	normalised growth rate inhibition (MCF7; 3.33 µM)	normalised growth rate inhibition (MCF7; 10 µM)	normalised growth rate inhibition (MCF10A; 0.04 µM)	normalised growth rate inhibition (MCF10A; 0.12 µM)	normalised growth rate inhibition (MCF10A; 0.37 µM)	normalised growth rate inhibition (MCF10A; 1.11 µM)	normalised growth rate inhibition (MCF10A; 3.33 µM)	normalised growth rate inhibition (MCF10A; 10 µM)	normalised growth rate inhibition (HS578T; 0.04 µM)	normalised growth rate inhibition (HS578T; 0.12 µM)	normalised growth rate inhibition (HS578T; 0.37 µM)	normalised growth rate inhibition (HS578T; 1.11 µM)	normalised growth rate inhibition (HS578T; 3.33 µM)	normalised growth rate inhibition (HS578T; 10 µM)	normalised growth rate inhibition (BT20; 0.04 µM)	normalised growth rate inhibition (BT20; 0.12 µM)	normalised growth rate inhibition (BT20; 0.37 µM)	normalised growth rate inhibition (BT20; 1.11 µM)	normalised growth rate inhibition (BT20; 3.33 µM)	normalised growth rate inhibition (BT20; 10 µM)
COCC(=O)NC/C=C/c1ccc2ncnc(Nc3ccc(Oc4ccc(C)nc4)c(C)c3)c2c1	0.508 ± 0.27	0.315 ± 0.22	0.188 ± 0.21	0.165 ± 0.12	0.0772 ± 0.1	-0.0874 ± 0.078	0.899 ± 0.13	0.896 ± 0.13	0.897 ± 0.12	0.912 ± 0.088	0.832 ± 0.15	0.812 ± 0.14	0.835 ± 0.1	0.803 ± 0.063	0.786 ± 0.025	0.796 ± 0.066	0.822 ± 0.084	0.499 ± 0.13	1.011 ± 0.0036	0.9964 ± 0.006	0.989 ± 0.014	0.984 ± 0.01	0.9849 ± 0.0016	0.9384 ± 0.003	0.966 ± 0.018	0.975 ± 0.035	0.963 ± 0.026	0.956 ± 0.042	0.928 ± 0.025	0.857 ± 0.017	0.928 ± 0.0096	0.918 ± 0.026	0.892 ± 0.045	0.805 ± 0.032	0.767 ± 0.053	0.531 ± 0.052
COc1cc(C(=O)NC2CCN(C)CC2)ccc1Nc1ncc2c(n1)N(C1CCCC1)CCC(=O)N2C(C)C	0.601 ± 0.093	0.755 ± 0.053	0.775 ± 0.079	0.758 ± 0.088	0.787 ± 0.082	0.511 ± 0.17	0.765 ± 0.047	0.884 ± 0.069	0.86 ± 0.068	0.834 ± 0.077	0.767 ± 0.093	0.308 ± 0.08	0.764 ± 0.077	0.84 ± 0.053	0.858 ± 0.07	0.807 ± 0.02	0.758 ± 0.065	0.298 ± 0.024	0.975 ± 0.04	0.979 ± 0.045	0.984 ± 0.019	0.972 ± 0.024	0.948 ± 0.029	0.758 ± 0.086	0.972 ± 0.024	0.964 ± 0.045	0.93 ± 0.03	0.917 ± 0.0095	0.8447 ± 0.0079	0.275 ± 0.079	0.783 ± 0.068	0.948 ± 0.1	0.933 ± 0.14	0.936 ± 0.11	0.888 ± 0.1	0.734 ± 0.15
COc1cc2ncn(-c3cc(OCc4ccccc4C(F)(F)F)c(C(N)=O)s3)c2cc1OC	0.847 ± 0.018	0.463 ± 0.19	-0.0831 ± 0.12	-0.157 ± 0.18	-0.213 ± 0.17	0.0233 ± 0.42	0.892 ± 0.064	0.736 ± 0.11	0.404 ± 0.12	0.0556 ± 0.12	-0.0347 ± 0.12	0.0238 ± 0.14	0.68 ± 0.15	0.279 ± 0.18	0.14 ± 0.023	0.072 ± 0.019	0.0415 ± 0.007	0.167 ± 0.099	0.96 ± 0.027	0.817 ± 0.083	0.412 ± 0.13	0.0464 ± 0.034	-0.0733 ± 0.13	-0.101 ± 0.17	0.959 ± 0.075	0.603 ± 0.19	0.0393 ± 0.039	-0.137 ± 0.087	-0.145 ± 0.12	0.00336 ± 0.2	0.853 ± 0.061	0.614 ± 0.18	0.331 ± 0.27	-0.00404 ± 0.12	-0.126 ± 0.06	-0.0325 ± 0.31
COc1cc2ncnc(-n3nc(-c4ccccn4)nc3N)c2cc1OC	1.16 ± 0.032	1.05 ± 0.033	1.04 ± 0.069	0.95 ± 0.13	0.871 ± 0.17	0.479 ± 0.44	1.05 ± 0.057	1.02 ± 0.058	0.785 ± 0.4	0.938 ± 0.041	0.903 ± 0.1	0.534 ± 0.25	1.09 ± 0.051	1.04 ± 0.045	1.05 ± 0.083	1.01 ± 0.1	0.918 ± 0.14	0.499 ± 0.41	1.018 ± 0.01	1.01 ± 0.014	1.008 ± 0.0099	0.994 ± 0.011	0.972 ± 0.018	0.729 ± 0.26	1.035 ± 0.0072	1.04 ± 0.021	1.05 ± 0.033	1.02 ± 0.053	0.978 ± 0.083	0.686 ± 0.15	1.07 ± 0.0067	1.03 ± 0.032	1.01 ± 0.036	1.02 ± 0.014	0.954 ± 0.047	0.588 ± 0.22
C[C@@H](N)c1ccc(C(=O)Nc2ccnc3[nH]ccc23)cc1	0.839 ± 0.19	0.836 ± 0.19	0.782 ± 0.14	0.667 ± 0.18	0.522 ± 0.18	-0.122 ± 0.18	0.873 ± 0.12	0.849 ± 0.1	0.777 ± 0.11	0.703 ± 0.086	0.586 ± 0.062	-0.303 ± 0.14	1.06 ± 0.049	1.04 ± 0.043	1 ± 0.039	0.905 ± 0.11	0.63 ± 0.19	-0.243 ± 0.13	0.9685 ± 0.0076	0.877 ± 0.069	0.888 ± 0.038	0.864 ± 0.047	0.805 ± 0.089	0.336 ± 0.18	0.884 ± 0.015	0.821 ± 0.059	0.802 ± 0.03	0.757 ± 0.041	0.626 ± 0.054	0.0283 ± 0.12	0.994 ± 0.068	1.01 ± 0.098	0.962 ± 0.084	0.895 ± 0.073	0.802 ± 0.09	0.296 ± 0.17
Cc1cnc(-c2cnc(NCCNc3ccc(C#N)cn3)nc2-c2ccc(Cl)cc2Cl)[nH]1	0.731 ± 0.12	0.725 ± 0.17	0.786 ± 0.16	0.749 ± 0.17	0.753 ± 0.17	0.465 ± 0.2	0.895 ± 0.041	0.823 ± 0.039	0.831 ± 0.021	0.827 ± 0.061	0.831 ± 0.024	0.762 ± 0.035	0.844 ± 0.082	0.786 ± 0.085	0.776 ± 0.095	0.586 ± 0.16	0.585 ± 0.1	0.222 ± 0.061	1.01 ± 0.032	1.01 ± 0.041	0.997 ± 0.07	0.952 ± 0.12	0.9 ± 0.12	0.799 ± 0.13	0.97 ± 0.014	0.9636 ± 0.0048	0.962 ± 0.018	0.911 ± 0.059	0.907 ± 0.018	0.525 ± 0.14	0.915 ± 0.11	0.932 ± 0.082	0.959 ± 0.087	1 ± 0.093	1.01 ± 0.069	0.875 ± 0.16
OCCCNc1cc(-c2ccnc(Nc3cccc(Cl)c3)n2)ccn1	0.398 ± 0.76	0.11 ± 0.49	-0.227 ± 0.18	-0.278 ± 0.16	-0.344 ± 0.15	-0.414 ± 0.18	0.257 ± 0.49	-0.139 ± 0.17	-0.226 ± 0.15	-0.295 ± 0.15	-0.318 ± 0.15	-0.319 ± 0.13	0.312 ± 0.68	-0.264 ± 0.073	-0.315 ± 0.074	-0.332 ± 0.09	-0.363 ± 0.09	-0.429 ± 0.097	0.263 ± 0.55	-0.205 ± 0.21	-0.228 ± 0.22	-0.24 ± 0.21	-0.242 ± 0.21	-0.231 ± 0.16	0.343 ± 0.56	-0.0634 ± 0.17	-0.144 ± 0.099	-0.162 ± 0.09	-0.188 ± 0.14	-0.228 ± 0.13	0.32 ± 0.6	-0.203 ± 0.17	-0.291 ± 0.18	-0.323 ± 0.18	-0.37 ± 0.19	-0.43 ± 0.17

— the supplement of paper PMC5662764
